Results as given in DBAASP.
Converted amounts (≈) assume the structure as drawn.

Legend:
Test in all cases: ≥ marks a high value that may be exact or a test limit, other limits are often not marked, values filed in µg/mL are converted to µM
Aeromonas hydrophila = test system: Aeromonas hydrophila
[1] = test system: Pseudomonas aeruginosa CMCC 10104
Enterococcus faecium = test system: Enterococcus faecium
Candida albicans 1 = test system: Candida albicans 1
Candida glabrata = test system: Candida glabrata
[2] = test system: Bacillus cereus CMCC 63301
Aeromonas sobria = test system: Aeromonas sobria
[3] = test system: Bacillus subtilis CMCC 63501
Acinetobacter baumannii = test system: Acinetobacter baumannii
Vibrio harveyi = test system: Vibrio harveyi
[4] = test system: Escherichia coli CMCC 44102
Vibrio splendidus = test system: Vibrio splendidus
Vibrio alginolyticus = test system: Vibrio alginolyticus
[5] = test system: Clostridium perfringens ATCC 13124
[6] = test system: Shigella flexneri ATCC 12022
Vibrio vulnificus = test system: Vibrio vulnificus
[7] = test system: Candida albicans CMCC 98001
Vibrio parahaemolyticus = test system: Vibrio parahaemolyticus
Klebsiella pneumoniae = test system: Klebsiella pneumoniae
[8] = test system: Enterococcus faecalis ATCC 29212
[9] = test system: Staphylococcus epidermidis
[10] = test system: Escherichia coli ATCC 25922
[11] = test system: Staphylococcus aureus CMCC 26003
[12] = test system: Lactiplantibacillus plantarum 8014
[13] = test system: Salmonella enterica subsp. enterica serovar Typhimurium C77-31
Escherichia coli UB1005 = test system: Escherichia coli UB1005
[14] = test system: Lacticaseibacillus rhamnosus 1.0385
[15] = test system: Pseudomonas aeruginosa ATCC 27853
[16] = test system: Staphylococcus aureus ATCC 43300
[17] = test system: Staphylococcus aureus ATCC 25923
[18] = test system: Lacticaseibacillus rhamnosus 1.0911
[19] = test system: Lacticaseibacillus rhamnosus 7469
[20] = test system: Staphylococcus aureus ATCC 29213
Escherichia coli K99 = test system: Escherichia coli K99
[21] = test system: Lacticaseibacillus rhamnosus 1.0936
[22] = test system: Salmonella enterica subsp. enterica serovar Pullorum C79-13
[23] = test system: Salmonella enterica subsp. enterica serovar Typhimurium ATCC 14028
Escherichia coli K88 = test system: Escherichia coli K88
[24] = test system: Staphylococcus aureus ATCC BAA-1683
Escherichia coli = test system: Escherichia coli
[25] = test system: Pseudomonas aeruginosa ATCC 9027
[26] = test system: Candida albicans FRR 5580
[27] = test system: Streptococcus pyogenes M1T1 5448
[28] = test system: Pseudomonas aeruginosa PAO1
Escherichia coli BL21 = test system: Escherichia coli BL21

## CC[C@H](C)[C@H](NC(=O)[C@H](CC(N)=O)NC(=O)[C@H](CS)NC(=O)CNC(=O)[C@@H](N)CCC(=O)O)C(=O)N[C@@H](CC(C)C)C(=O)N[C@@H](CS)C(=O)N[C@@H](CC(C)C)C(=O)N[C@@H](CC(C)C)C(=O)N[C@@H](CCCCN)C(=O)N[C@@H](CCCN=C(N)N)C(=O)N[C@@H](CCCCN)C(=O)N[C@H](C(=O)N[C@@H](CCCCN)C(=O)N[C@@H](C)C(=O)N[C@H](C(=O)N[C@@H](CCCCN)C(=O)N[C@@H](CC(N)=O)C(=O)N[C@H](C(=O)N[C@H](C(=O)N[C@@H](CCCCN)C(=O)N[C@@H](CC(N)=O)C(=O)N[C@H](C(=O)N[C@H](C(=O)N[C@@H](CCCCN)C(=O)N[C@@H](CO)C(=O)N[C@H](C(=O)N[C@H](C(=O)NCC(=O)O)C(C)C)C(C)C)C(C)C)C(C)C)C(C)C)C(C)C)C(C)C)C(C)C [EGCNILCLLKRKVKAVKNVVKNVVKSVVG]
Aeromonas hydrophila
  MIC: 11.9 µM (≈ 37.5 µg/mL)
[1]
  MIC: 31.9 µM (≈ 100 µg/mL)
Enterococcus faecium
  MIC: 31.9 µM (≈ 100 µg/mL)
Candida albicans 1
  MIC: 31.9 µM (≈ 100 µg/mL)
Candida glabrata
  MIC: 31.9 µM (≈ 100 µg/mL)
[2]
  MIC: 31.9 µM (≈ 100 µg/mL)
Aeromonas sobria
  MIC: 31.9 µM (≈ 100 µg/mL)
[3]
  MIC: 11.9 µM (≈ 37.5 µg/mL)
Acinetobacter baumannii
  MIC: 31.9 µM (≈ 100 µg/mL)
Vibrio harveyi
  MIC: 23.9 µM (≈ 75 µg/mL)
[4]
  MIC: 5.97 µM (≈ 18.8 µg/mL)
Vibrio splendidus
  MIC: 23.9 µM (≈ 75 µg/mL)
Vibrio alginolyticus
  MIC: 31.9 µM (≈ 100 µg/mL)
[5]
  MIC: 11.9 µM (≈ 37.5 µg/mL)
[6]
  MIC: 5.97 µM (≈ 18.8 µg/mL)
Vibrio vulnificus
  MIC: 31.9 µM (≈ 100 µg/mL)
[7]
  MIC: 31.9 µM (≈ 100 µg/mL)
Vibrio parahaemolyticus
  MIC: 2.99 µM (≈ 9.38 µg/mL)
Klebsiella pneumoniae
  MIC: > 31.9 µM
[8]
  MIC: > 31.9 µM
[9]
  MIC: 31.9 µM (≈ 100 µg/mL)
[10]
  MIC: 2.99 µM (≈ 9.38 µg/mL)
[11]
  MIC: 2.99 µM (≈ 9.38 µg/mL)

## C[C@H](NC(=O)[C@H](C)NC(=O)[C@H](Cc1c[nH]c2ccccc12)NC(=O)[C@H](Cc1c[nH]c2ccccc12)NC(=O)[C@H](Cc1c[nH]c2ccccc12)NC(=O)[C@H](CCCN=C(N)N)NC(=O)[C@@H]1CSSC[C@H](N)C(=O)N[C@@H](C)C(=O)N[C@@H](CO)C(=O)N[C@@H](Cc2ccc(O)cc2)C(=O)N[C@@H](Cc2ccccc2)C(=O)N1)C(N)=O [CASYFCRWWWAA]
[12]
  MIC: ≥ 64 µM
[13]
  MIC: ≥ 64 µM
Escherichia coli UB1005
  MIC: ≥ 64 µM
[14]
  MIC: ≥ 64 µM
[15]
  MIC: > 64 µM
[16]
  MIC: > 64 µM
[17]
  MIC: > 64 µM
[18]
  MIC: ≥ 64 µM
[19]
  MIC: ≥ 64 µM
[20]
  MIC: > 64 µM
Escherichia coli K99
  MIC: ≥ 64 µM
[21]
  MIC: ≥ 64 µM
[22]
  MIC: ≥ 64 µM
[23]
  MIC: > 64 µM
[10]
  MIC: > 64 µM
Escherichia coli K88
  MIC: ≥ 64 µM

## CC(C)C[C@H](NC(=O)[C@H](CC(C)C)NC(=O)[C@H](CCCCN)NC(=O)[C@H](Cc1c[nH]c2ccccc12)NC(=O)[C@H](Cc1c[nH]c2ccccc12)NC(=O)[C@@H](N)CCCCN)C(=O)N[C@@H](CCCN=C(N)N)C(=O)N[C@@H](CCCCN)C(=O)N[C@@H](CCCCN)C(=O)N[C@@H](CCCN=C(N)N)C(N)=O [KWWKLLRKKR]
[17]
  MIC: 21.7 µM (≈ 31.2 µg/mL)
[24]
  MIC: ≥ 43.3 µM
Escherichia coli
  MIC: 173 µM (≈ 250 µg/mL)

## CC(C)[C@H](NC(=O)[C@@H]1CCCN1C(=O)[C@H](Cc1ccccc1)NC(=O)[C@H](CCCCN)NC(=O)CNC(=O)[C@H](CCCCN)NC(=O)[C@H](Cc1c[nH]c2ccccc12)NC(=O)[C@H](Cc1c[nH]c2ccccc12)NC(=O)[C@H](CCCCN)NC(=O)[C@H](Cc1c[nH]c2ccccc12)NC(=O)[C@H](Cc1c[nH]c2ccccc12)NC(=O)[C@H](CCCN=C(N)N)NC(=O)[C@H](Cc1c[nH]c2ccccc12)NC(=O)[C@@H](NC(=O)[C@@H](NC(=O)[C@@H]1CCCN1C(=O)[C@@H](N)Cc1ccccc1)C(C)C)[C@@H](C)O)C(=O)N[C@H](C(=O)N[C@@H](Cc1c[nH]c2ccccc12)C(=O)N[C@@H](CCCN=C(N)N)C(=O)N[C@@H](Cc1c[nH]c2ccccc12)C(=O)N[C@@H](Cc1c[nH]c2ccccc12)C(=O)N[C@@H](CCCCN)C(=O)N[C@@H](Cc1c[nH]c2ccccc12)C(=O)N[C@@H](Cc1c[nH]c2ccccc12)C(=O)N[C@@H](CCCCN)C(=O)NCC(=O)O)[C@@H](C)O [FPVTWRWWKWWKGKFPVTWRWWKWWKG]
[25]
  MIC: > 65.2 µM
[17]
  MIC: 65.2 µM (≈ 250 µg/mL)
[26]
  MIC: ≥ 32.6 µM
[10]
  MIC: 65.2 µM (≈ 250 µg/mL)

## CC[C@H](C)[C@H](NC(=O)[C@H](CCCN=C(N)N)NC(=O)[C@H](CC(N)=O)NC(=O)[C@@H](NC(=O)CNC(=O)[C@H](C)N)[C@@H](C)O)C(=O)N[C@@H](C)C(=O)N[C@@H](CCCCN)C(=O)N[C@@H](CCC(=O)O)C(=O)N[C@@H](CC(C)C)C(=O)N[C@@H](CCCN=C(N)N)C(=O)N[C@@H](CCCN=C(N)N)C(=O)N[C@@H](Cc1ccc(O)cc1)C(=O)N[C@H](C(=O)N[C@@H](CCCN=C(N)N)C(=O)N[C@@H](CCCCN)C(=O)N[C@H](C(=O)NCC(=O)N[C@@H](CCCN=C(N)N)C(=O)N[C@H](C(=O)N[C@@H](CCCCN)C(=O)N[C@@H](CCCN=C(N)N)C(=O)N[C@@H](CCCCN)C(=O)N[C@@H](C)C(=O)N[C@@H](Cc1c[nH]c2ccccc12)C(=O)O)[C@@H](C)CC)C(C)C)[C@@H](C)CC [AGTNRIAKELRRYIRKVGRIKRKAW]
[27]
  MIC: 2 µM (≈ 6.08 µg/mL)
[28]
  MIC: 16 µM (≈ 48.7 µg/mL)
Escherichia coli BL21
  MIC: 0.25 µM (≈ 0.76 µg/mL)
